This is an account of results in patent US6211223A, “Indole derivatives useful in therapy” (Pfizer Inc., priority 1997, dated 2001).

The target in assay [1] is T1, cloned human ETA receptor (Homo sapiens, UniProt P25101).
T1 sequence (P25101 21-427): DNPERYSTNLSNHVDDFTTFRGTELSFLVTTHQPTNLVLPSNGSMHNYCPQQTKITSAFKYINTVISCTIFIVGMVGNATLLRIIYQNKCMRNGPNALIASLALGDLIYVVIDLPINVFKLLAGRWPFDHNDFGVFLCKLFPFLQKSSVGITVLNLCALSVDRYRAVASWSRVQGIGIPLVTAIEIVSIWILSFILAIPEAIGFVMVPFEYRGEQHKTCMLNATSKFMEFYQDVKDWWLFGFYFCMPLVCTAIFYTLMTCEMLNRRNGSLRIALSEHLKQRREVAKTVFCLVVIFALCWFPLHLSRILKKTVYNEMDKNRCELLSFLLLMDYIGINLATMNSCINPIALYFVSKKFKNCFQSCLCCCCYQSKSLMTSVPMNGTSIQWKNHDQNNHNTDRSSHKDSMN
In words: Test A: Binding Assay, competition with 125I-ET-1, Binding to ETA Receptors (selectivity versus Binding to ETB Receptors). As for the experimental part: Competition between test compounds and ^125 I-ET-1 binding to human endothelin receptors is determined as follows.
(§1) 25 μl of a 30 pM solution of [^125 I]Tyr^13 ET-1 (specific activity 2,200 Ci/mM) is mixed with 25 μl samples of test compound (final concentrations in the range 0.1 nM-50,000 nM). 200 μl of a solution containing cloned human ETA receptor (0.75 pmoles receptor protein/ml), 50 mM Tris, 0.5 mM CaCl2, 0.1% human serum albumen, 0.1% bacitracin, 0.05% Tween 20, pH 7.4 is added. The solution is mixed at 37° C. for 2 hours. After the incubation, the unbound ligand is separated from receptor bound ligand by filtration with a Brandel cell harvester, followed by three washes of buffer. Filter papers are counted for radioactivity, and the IC50 (the concentration of test compound at which 50% of the radiolabelled compound is unbound) determined for the concentration range tested.
as §1, with “concentration” for “concentrations in the range”, “ETB” for “ETA”, “(0.25” for “(0.75”

In a further assay the test system is neointimal formation. The conditions noted are these: rats, balloon angioplasty; S. Douglas et al, Circ Res, 75, 1994; cited from earlier work.

One may read the Ki as the equilibrium dissociation constant of an inhibitor or competing ligand from its target. On to `COc1cc(C)ccc1S(=O)(=O)NC(=O)[C@@H](c1ccc2c(c1)OCO2)c1cn(C)c2cc(C(=O)O)ccc12` [Example 1, (S)-(+)-3-{1-(1,3-Benzodioxol-5-yl)-2-[(2-methoxy-4-methylphenyl)sulfonyl-amino]-2-oxoethyl}-1-methyl-1H-indole-6-carboxylic acid], for which the “selectivity for ETA receptors over ETB receptors” value in assay [1] (ETA over ETB) is “approximately 400”. Besides, in assay [1] (fraction of the IC50 (ETA) of the (-)-enantiomer), the “IC50 (ETA) relative to that of its enantiomer” value was “approximately one quarter”. The Ki in assay [1] (human ETA receptor, read-out: binding affinity for ETA receptors (Ki)) was 4.18 nM.

Turning to `CCCOc1ccc2c(c1)[C@@H](c1ccc(OC)cc1OCC(=O)O)[C@H](C(=O)O)[C@H]2c1ccc2c(c1)OCO2` [SB-209670], the “reduction in neointimal formation relative to control animals” value with neointimal formation is 50%.
